Reference: US20110236325A1, “METHODS TO TREAT OR PREVENT A SKIN CONDITION USING A NELL1 PEPTIDE” (NellOne Therapeutics, Inc., priority 2010, published 2011)

Legend:
EFT-400 tissues [1] = assay: Sunburned cell counts in UV-irradiated EpiDerm-FT (EFT-400) skin model tissues, H&E histology; type: cell-based, human
Experimental: Packaged tissues were stored at 4° C. overnight and then re-equilibrated in EFT-400-ASY medium overnight prior to the start of experiments. The sample size was n=3 for each treatment group in the gene expression experiments; and n=6 (two independent experiments of n=3) for the sunburned cell counts.
Treated and untreated tissues were exposed to UV irradiation with 200 mJ/cm^2UVB/29.94 mW/cm^2UVA simulated solar UV light (Honle-500 solar lamp).
(§1) At the conclusion of the 24 hour post-irradiation period, EFT-400 tissues were fixed in 10% formalin for 2 hours at room temperature (two independent experiments with n=3). Formalin fixed tissues were embedded in paraffin and 6 micron slices were stained with haematoxylin and eosin (H&E).

EFT-400 tissues [2] = assay: Gene expression by quantitative PCR custom array in EFT-400 tissues with or without UV irradiation; settings: for AVG Ct ACTB (housekeeping gene) / AVG Ct AQP3 / AVG Ct BCL2L1 / AVG Ct COL1A1 / AVG Ct COL4A2 / AVG Ct COL5A1 / AVG Ct COL6A1 / AVG Ct COL6A2 / AVG Ct COL7A1 / AVG Ct COL8A1 / AVG Ct COL11A1 / AVG Ct COL12A1 / AVG Ct COL14A1 / AVG Ct COL15A1 / AVG Ct COL16A1 / AVG Ct CYP2E1 / AVG Ct DSG1 / AVG Ct ERCC1 / AVG Ct FN1 / AVG Ct GAPDH (housekeeping gene) / AVG Ct GDF15 / AVG Ct GSTM3 / AVG Ct HSPA8 / AVG Ct IL1A / AVG Ct IL1B / AVG Ct IL8 / AVG Ct KAL1 / AVG Ct KRT16 / AVG Ct LAMA1 / AVG Ct LAMA2 / AVG Ct LAMA3 / AVG Ct LAMA5 / AVG Ct LAMB1 / AVG Ct LAMB3 / AVG Ct LAMC1 / AVG Ct MMP1 / AVG Ct MMP2 / AVG Ct MT2A / AVG Ct PCNA / AVG Ct RPL13A (housekeeping gene) / AVG Ct SIRT1 / AVG Ct TGFBI / AVG Ct THBS3 / AVG Ct TNC / AVG Ct VTN: 50 uM Genistein
Experimental: EpiDerm-FT™ (EFT-400) tissues were produced and packaged in the MatTek Corporation GMP tissue culture production laboratories following standard procedures. Packaged tissues were stored at 4° C. overnight and then re-equilibrated in EFT-400-ASY medium overnight prior to the start of experiments. The sample size was n=3 for each treatment group in the gene expression experiments; and n=6 (two independent experiments of n=3) for the sunburned cell counts.
Total RNA was isolated from the EFT-400 tissues (RNAqueous kit, Ambion) (n=3) and utilized for gene expression analysis by quantitative PCR on an SABioscience custom array containing 42 Human Extracellular Matrix (ECM) and Adhesion Molecules RT^2 Profiler™ PCR Array, stress and toxicity genes whose expression, based on MatTek data, are known to be dramatically altered by UV-protective compounds on UV damaged skin. […] Further, there were three internal control spots on the array that corresponded to human genomic DNA contamination (HGDC), positive PCR control (PPC), and reverse transcription control (RTC).

EFT-400 tissues [3] = assay: Adverse effects of treatment on EFT-400 tissues (H&E stained histology); settings: 50 μM in the basolateral medium
Experimental: as §1

O=c1c(-c2ccc(O)cc2)coc2cc(O)cc(O)c12 [Genistein, reference compound]
sunburned cell formation (EFT-400 tissues [1]; 50 μM, 200 mJ/cm2 UVB/29.94 mW/cm2 UVA, 24 hour post irradiation): did not decrease sunburned cell formation to the same extent as 100 ng/ml NELL1
number of sunburned cells as compared to UV-only controls (EFT-400 tissues [1]; pre-treatment 30 minutes prior to UV, continued 24 hours post-irradiation): statistically significant reduction in the number of sunburned cells
activity in producing the observed effects (sunburned cells, gene expression) (EFT-400 tissues [2]; NELL1 protein at 100 ng/ml, genistein at 50 μM): most active in producing the observed effects
AVG Ct ACTB (housekeeping gene) (EFT-400 tissues [2]; No UV): 18.95
AVG Ct AQP3 (EFT-400 tissues [2]; No UV): 23.75
AVG Ct BCL2L1 (EFT-400 tissues [2]; No UV): 24.35
AVG Ct COL1A1 (EFT-400 tissues [2]; No UV): 18.66
AVG Ct COL4A2 (EFT-400 tissues [2]; No UV): 26.06
AVG Ct COL5A1 (EFT-400 tissues [2]; No UV): 23.19
AVG Ct COL6A1 (EFT-400 tissues [2]; No UV): 19.41
AVG Ct COL6A2 (EFT-400 tissues [2]; No UV): 19.82
AVG Ct COL7A1 (EFT-400 tissues [2]; No UV): 26.3
AVG Ct COL8A1 (EFT-400 tissues [2]; No UV): 28.27
AVG Ct COL11A1 (EFT-400 tissues [2]; No UV): 27.54
AVG Ct COL12A1 (EFT-400 tissues [2]; No UV): 25.19
AVG Ct COL14A1 (EFT-400 tissues [2]; No UV): 26.08
AVG Ct COL15A1 (EFT-400 tissues [2]; No UV): 25.73
AVG Ct COL16A1 (EFT-400 tissues [2]; No UV): 24.6
AVG Ct CYP2E1 (EFT-400 tissues [2]; No UV): 31.05
AVG Ct DSG1 (EFT-400 tissues [2]; No UV): 20.31
AVG Ct ERCC1 (EFT-400 tissues [2]; No UV): 24.94
AVG Ct FN1 (EFT-400 tissues [2]; No UV): 21.06
AVG Ct GAPDH (housekeeping gene) (EFT-400 tissues [2]; No UV): 17.74
AVG Ct GDF15 (EFT-400 tissues [2]; No UV): 27.52
AVG Ct GSTM3 (EFT-400 tissues [2]; No UV): 29.01
AVG Ct HSPA8 (EFT-400 tissues [2]; No UV): 20.53
AVG Ct IL1A (EFT-400 tissues [2]; No UV): 25.92
AVG Ct IL1B (EFT-400 tissues [2]; No UV): 29.03
AVG Ct IL8 (EFT-400 tissues [2]; No UV): 23.12
AVG Ct KAL1 (EFT-400 tissues [2]; No UV): 31.59
AVG Ct KRT16 (EFT-400 tissues [2]; No UV): 17.11
AVG Ct LAMA1 (EFT-400 tissues [2]; No UV): 29.54
AVG Ct LAMA2 (EFT-400 tissues [2]; No UV): 25.35
AVG Ct LAMA3 (EFT-400 tissues [2]; No UV): 24.25
AVG Ct LAMA5 (EFT-400 tissues [2]; No UV): 27.39
AVG Ct LAMB1 (EFT-400 tissues [2]; No UV): 23.3
AVG Ct LAMB3 (EFT-400 tissues [2]; No UV): 25.31
AVG Ct LAMC1 (EFT-400 tissues [2]; No UV): 23.09
AVG Ct MMP1 (EFT-400 tissues [2]; No UV): 22.22
AVG Ct MMP2 (EFT-400 tissues [2]; No UV): 19.2
AVG Ct MT2A (EFT-400 tissues [2]; No UV): 18.74
AVG Ct PCNA (EFT-400 tissues [2]; No UV): 23.76
AVG Ct RPL13A (housekeeping gene) (EFT-400 tissues [2]; No UV): 20.65
AVG Ct SIRT1 (EFT-400 tissues [2]; No UV): 26.45
AVG Ct TGFBI (EFT-400 tissues [2]; No UV): 22.04
AVG Ct THBS3 (EFT-400 tissues [2]; No UV): 29.09
AVG Ct TNC (EFT-400 tissues [2]; No UV): 22.12
AVG Ct VTN (EFT-400 tissues [2]; No UV): 32.74
expression of IL-1β elevated after UV exposure (EFT-400 tissues [2]; UV-irradiated): decrease in the expression
expression of IL-8 elevated after UV exposure (EFT-400 tissues [2]; UV-irradiated): decrease in the expression
expression of MMP-1 elevated after UV exposure (EFT-400 tissues [2]; UV-irradiated): decrease in the expression
levels of AQP3 RNA after UV exposure (EFT-400 tissues [2]; UV-irradiated): did not have an effect on AQP3 levels
reversing the UV-induced effects on gene expression (EFT-400 tissues [2]; UV-irradiated): most effective at reversing the UV-induced effects
UV-elevated levels of AQP3 (EFT-400 tissues [2]; UV-irradiated, genistein): did not have the same effect
AVG Ct ACTB (housekeeping gene) (EFT-400 tissues [2]; UVB + UVA): 18.85
AVG Ct AQP3 (EFT-400 tissues [2]; UVB + UVA): 23.01
AVG Ct BCL2L1 (EFT-400 tissues [2]; UVB + UVA): 23.79
AVG Ct COL1A1 (EFT-400 tissues [2]; UVB + UVA): 18.54
AVG Ct COL4A2 (EFT-400 tissues [2]; UVB + UVA): 21.82
AVG Ct COL5A1 (EFT-400 tissues [2]; UVB + UVA): 23.29
AVG Ct COL6A1 (EFT-400 tissues [2]; UVB + UVA): 19.47
AVG Ct COL6A2 (EFT-400 tissues [2]; UVB + UVA): 19.68
AVG Ct COL7A1 (EFT-400 tissues [2]; UVB + UVA): 24.97
AVG Ct COL8A1 (EFT-400 tissues [2]; UVB + UVA): 27.28
AVG Ct COL11A1 (EFT-400 tissues [2]; UVB + UVA): 27.6
AVG Ct COL12A1 (EFT-400 tissues [2]; UVB + UVA): 24.93
AVG Ct COL14A1 (EFT-400 tissues [2]; UVB + UVA): 25.69
AVG Ct COL15A1 (EFT-400 tissues [2]; UVB + UVA): 25.83
AVG Ct COL16A1 (EFT-400 tissues [2]; UVB + UVA): 23.98
AVG Ct CYP2E1 (EFT-400 tissues [2]; UVB + UVA): 29.69
AVG Ct DSG1 (EFT-400 tissues [2]; UVB + UVA): 21.03
AVG Ct ERCC1 (EFT-400 tissues [2]; UVB + UVA): 24.08
AVG Ct FN1 (EFT-400 tissues [2]; UVB + UVA): 20.79
AVG Ct GAPDH (housekeeping gene) (EFT-400 tissues [2]; UVB + UVA): 18.39
AVG Ct GDF15 (EFT-400 tissues [2]; UVB + UVA): 21.74
AVG Ct GSTM3 (EFT-400 tissues [2]; UVB + UVA): 28.37
AVG Ct HSPA8 (EFT-400 tissues [2]; UVB + UVA): 20.14
AVG Ct IL1A (EFT-400 tissues [2]; UVB + UVA): 25.87
AVG Ct IL1B (EFT-400 tissues [2]; UVB + UVA): 28.03
AVG Ct IL8 (EFT-400 tissues [2]; UVB + UVA): 20.61
AVG Ct KAL1 (EFT-400 tissues [2]; UVB + UVA): 31.72
AVG Ct KRT16 (EFT-400 tissues [2]; UVB + UVA): 17.92
AVG Ct LAMA1 (EFT-400 tissues [2]; UVB + UVA): 28.49
AVG Ct LAMA2 (EFT-400 tissues [2]; UVB + UVA): 25.42
AVG Ct LAMA3 (EFT-400 tissues [2]; UVB + UVA): 24.01
AVG Ct LAMA5 (EFT-400 tissues [2]; UVB + UVA): 27.71
AVG Ct LAMB1 (EFT-400 tissues [2]; UVB + UVA): 22.85
AVG Ct LAMB3 (EFT-400 tissues [2]; UVB + UVA): 24.92
AVG Ct LAMC1 (EFT-400 tissues [2]; UVB + UVA): 22.69
AVG Ct MMP1 (EFT-400 tissues [2]; UVB + UVA): 20.16
AVG Ct MMP2 (EFT-400 tissues [2]; UVB + UVA): 18.5
AVG Ct MT2A (EFT-400 tissues [2]; UVB + UVA): 16.4
AVG Ct PCNA (EFT-400 tissues [2]; UVB + UVA): 23.21
AVG Ct RPL13A (housekeeping gene) (EFT-400 tissues [2]; UVB + UVA): 20.68
AVG Ct SIRT1 (EFT-400 tissues [2]; UVB + UVA): 25.31
AVG Ct TGFBI (EFT-400 tissues [2]; UVB + UVA): 22.03
AVG Ct THBS3 (EFT-400 tissues [2]; UVB + UVA): 28.97
AVG Ct TNC (EFT-400 tissues [2]; UVB + UVA): 21.29
AVG Ct VTN (EFT-400 tissues [2]; UVB + UVA): 32.61
extent of gene expression changes in the absence of UV irradiation, compared to NELL1 (EFT-400 tissues [2]; no UV): more changes compared to NELL1
gene expression in the absence of UV irradiation (EFT-400 tissues [2]; no UV): some decreases in gene expression
adverse effects on the EFT-400 tissues (EFT-400 tissues [3]): did not produce any noteworthy adverse effects
